In patent publication US20240343740A1, “MACROCYCLIC GLUCAGON-LIKE PEPTIDE 1 RECEPTOR AGONISTS” (Eli Lilly and Company, priority 2021, published 2024) one finds EC50 and Emax data, which are given here for 14 compounds.

Test [1] addresses T1, human GLP-1R (Homo sapiens, UniProt P43220). As to the kind of experiment: Human GLP-1 Receptor HEK293 cell cAMP assay, 581 fmol/mg GLP-1R expression density. Format: cell-based. On the set-up: expressed in transfected cells; host or cells: HEK293 clonal cell line. The following applies: HEK293 cell line with 581 fmol/mg expression density of GLP-1R; for EC50: geometric mean, read-out: EC50 nM (SEM, n), intracellular cAMP response, relative EC50; for Emax: percent of maximal response to GLP-1(7-36)NH2, arithmetic mean, read-out: Emax % (SEM, n), intracellular cAMP response. The protocol: (§1) Human GLP-1 Receptor HEK293 Cell cAMP Assay
(§2) GLP-1 Receptor functional activity is determined using cAMP formation in an HEK293 clonal cell line expressing human GLP-1R (NCBI accession number NP_002053) at an expression density of 581±94 (n=6) and 104±12 (n=5) fmol/mg protein (determined using [^125I]GLP-1(7-36)NH2 homologous competition binding analysis). The hGLP-1R receptor expressing cells are treated with compound (20 point concentration-response curve in DMSO, 2.75-fold Labcyte Echo direct dilution, 384 well plate Corning Cat #3570) in DMEM (Gibco Cat #31053) supplemented with 1× GlutaMAX™ (Gibco Cat #35050), 0.1% bovine casein (Sigma C4765-10ML), 250 μM IBMX (3-Isobutyl-1-methylxanthine, Acros Cat #228420010) and 20 mM HEPES (Gibco Cat #15630) in a 20 μL assay volume (final DMSO concentration is 0.5%). After a 30 min incubation at 37° C., the resulting increase in intracellular cAMP is quantitatively determined using the CisBio cAMP Dynamic 2 HTRF Assay Kit (62AM4PEJ). Briefly, cAMP levels within the cell are detected by adding the cAMP-d2 conjugate in cell lysis buffer (10 μL) followed by the antibody anti-cAMP-Eu^3+-Cryptate, also in cell lysis buffer (10 μL). The resulting competitive assay is incubated for at least 60 min at RT, then detected using a PerkinElmer Envision® instrument with excitation at 320 nm and emission at 665 nm and 620 nm. Envision units (emission at 665 nm/620 nm*10,000) are inversely proportional to the amount of cAMP present and are converted to nM cAMP per well using a cAMP standard curve. The amount of cAMP generated (nM) in each well is converted to a percent of the maximal response observed with human GLP-1(7-36)NH2. A relative EC50 value and percent top (Emax) are derived by non-linear regression analysis using the percent maximal response vs. the concentration of compound added, fitted to a four-parameter logistic equation.
A general note: Cyclic AMP is a second messenger, typically raised through Gs and lowered through Gi signalling.

The target of test [2] is T1, human GLP-1R. As to the kind of experiment: Human GLP-1 Receptor HEK293 cell cAMP assay, 104 fmol/mg GLP-1R expression density. It is filed as cell-based. Also on record: expressed in transfected cells; host or cells: HEK293 clonal cell line. Particulars: HEK293 cell line with 104 fmol/mg expression density of GLP-1R; for EC50: geometric mean, read-out: EC50 nM (SEM, n), intracellular cAMP response, relative EC50; for Emax: percent of maximal response to GLP-1(7-36)NH2, arithmetic mean, read-out: Emax % (SEM, n), intracellular cAMP response. The protocol:
as §1, §2

T1 sequence (P43220 24-463): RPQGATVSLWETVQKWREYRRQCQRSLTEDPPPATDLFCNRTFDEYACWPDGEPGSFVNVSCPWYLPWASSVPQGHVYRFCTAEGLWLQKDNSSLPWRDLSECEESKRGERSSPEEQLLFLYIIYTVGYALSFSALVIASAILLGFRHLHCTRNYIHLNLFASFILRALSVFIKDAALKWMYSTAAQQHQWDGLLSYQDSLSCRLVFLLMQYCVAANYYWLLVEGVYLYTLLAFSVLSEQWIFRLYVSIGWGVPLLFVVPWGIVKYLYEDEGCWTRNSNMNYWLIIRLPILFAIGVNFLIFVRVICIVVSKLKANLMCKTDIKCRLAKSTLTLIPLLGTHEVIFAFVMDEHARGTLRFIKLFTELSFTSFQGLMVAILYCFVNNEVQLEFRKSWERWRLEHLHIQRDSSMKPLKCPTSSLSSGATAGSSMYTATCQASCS

For orientation: EC50 means the concentration at which the effect is half-maximal. The Emax is the size of the effect at its maximum, as opposed to the concentration needed. As for `N#Cc1ccc2c(c1)CCCOc1cc(ccc1Cc1nc3ccc(C(=O)O)cc3n1C[C@@H]1CCO1)-c1cccc(n1)OC2` [Example 4, (S)-2-((5^4-Cyano-3,9-dioxa-2(2,6)-pyridina-1(1,3),5(1,2)-dibenzenacyclononaphane-1^4-yl)methyl)-1-(oxetan-2-ylmethyl)-1H-benzo[d]imidazole-6-carboxylic acid], in test [1], the EC50 amounted to 90.6 nM and the Emax was determined as 99.2%. In addition, in test [2], the EC50 was found to be 384 nM and the Emax came out at 78.7%.
`COc1cc(C(=O)O)cc2c1nc(Cc1ccc3cc1OCCCc1cc(C#N)ccc1COc1cccc-3n1)n2C[C@@H]1CCO1` [Example 5, (S)-2-((5^4-Cyano-3,9-dioxa-2(2,6)-pyridina-1(1,3),5(1,2)-dibenzenacyclononaphane-1^4-yl)methyl)-4-methoxy-1-(oxetan-2-ylmethyl)-1H-benzo[d]imidazole-6-carboxylic acid]: the EC50 came to 6.58 nM in test [1] and 22.3 nM in test [2]. In addition, the Emax stood at 109% in test [1] and 81.6% in test [2].
On to `N#Cc1ccc2c(c1)CCCOc1cc(ccc1Cc1nc3ccc(C(=O)O)nc3n1C[C@@H]1CCO1)-c1cccc(n1)OC2` [Example 6, (S)-2-((5^4-Cyano-3,9-dioxa-2(2,6)-pyridina-1(1,3),5(1,2)-dibenzenacyclononaphane-1^4-yl)methyl)-3-(oxetan-2-ylmethyl)-3H-imidazo[4,5-b]pyridine-5-carboxylic acid], for which, in test [1], the EC50 worked out at 166 nM and the Emax was determined as 97.2%. In test [2], the EC50 came to 1020 nM and the Emax came to 89.1%.
Take `N#Cc1ccc2c(c1)CCCOc1cc(ccc1Cc1nc3c(F)cc(C(=O)O)cc3n1C[C@@H]1CCO1)-c1cccc(n1)OC2` [Example 7, (S)-2-((5^4-cyano-3,9-dioxa-2(2,6)-pyridina-1(1,3),5(1,2)-dibenzenacyclononaphane-1^4-yl)methyl)-4-fluoro-1-(oxetan-2-ylmethyl)-1H-benzo[d]imidazole-6-carboxylic acid]: in test [1], the EC50 worked out at 20.1 nM and the Emax amounted to 104%. For the same compound, in test [2], the EC50 amounted to 96.8 nM and the Emax came out at 92.9%.
Take `N#Cc1ccc2c(c1)CCCOc1cc(c(F)cc1Cc1nc3ccc(C(=O)O)cc3n1C[C@@H]1CCO1)-c1cccc(n1)NC2` [Example 8, (S)-2-((5^4-Cyano-1^6-fluoro-9-oxa-3-aza-2(2,6)-pyridina-1(1,3),5(1,2)-dibenzenacyclononaphane-1^4-yl)methyl)-1-(oxetan-2-ylmethyl)-1H-benzo[d]imidazole-6-carboxylic acid]: in test [1], the EC50 is 168 nM and the Emax is 90.5%. Also, in test [2], the EC50 stood at 815 nM and the Emax came to 81.5%.
On the same counts, the results for `COc1cc(C(=O)O)cc2c1nc(Cc1cc(C)c3cc1OCCCc1cc(C#N)ccc1COc1cccc-3n1)n2C[C@@H]1CCO1` [Example 9, (S)-2-((5^4-Cyano-16-methyl-3,9-dioxa-2(2,6)-pyridina-1(1,3),5(1,2)-dibenzenacyclononaphane-1^4-yl)methyl)-4-methoxy-1-(oxetan-2-ylmethyl)-1H-benzo[d]imidazole-6-carboxylic acid] are 1.8 nM, 118%, 5.44 nM and 83.1%.
With `N#Cc1ccc2cc1CCCOc1cc(c(F)cc1Cc1nc3ccc(C(=O)O)cc3n1C[C@@H]1CCO1)-c1cccc(n1)OC2` [Example 10, (S)-2-((5^4-Cyano-1^6-fluoro-3,9-dioxa-2(2,6)-pyridina-1,5(1,3)-dibenzenacyclononaphane-1^4-yl)methyl)-1-(oxetan-2-ylmethyl)-1H-benzo[d]imidazole-6-carboxylic acid], in test [1], the EC50 is 35.3 nM and the Emax is 107%. In addition, in test [2], the EC50 was 147 nM and the Emax is 88.9%.
Take `CCn1cncc1Cn1c(Cc2ccc3cc2OCCCc2cc(C#N)ccc2COc2cccc-3n2)nc2ccc(C(=O)O)cc21` [Example 11, 2-((5^4-cyano-3,9-dioxa-2(2,6)-pyridina-1(1,3),5(1,2)-dibenzenacyclononaphane-1^4-yl)methyl)-1-((1-ethyl-1H-imidazol-5-yl)methyl)-1H-benzo[d]imidazole-6-carboxylic acid]: in test [1], the EC50 was determined as 35 nM and the Emax came to 92%. Besides, in test [2], the EC50 turned out to be 194 nM and the Emax was 81%.
In the case of `N#Cc1ccc2c(c1)OCCOc1cc(c(F)cc1Cc1nc3ccc(C(=O)O)cc3n1C[C@@H]1CCO1)-c1cccc(n1)OC2` [Example 13, (S)-2-((5^4-Cyano-1^6-fluoro-3,6,9-trioxa-2(2,6)-pyridina-1(1,3),5(1,2)-dibenzenacyclononaphane-1^4-yl)methyl)-1-(oxetan-2-ylmethyl)-1H-benzo[d]imidazole-6-carboxylic acid], in test [1], the EC50 was 120 nM and the Emax was found to be 88.5%. For the same compound, in test [2], the 50% effective concentration (EC50) came to 542 nM and the Emax worked out at 74.7%.
Regarding `N#Cc1ccc2c(c1)COCc1cc(c(F)cc1Cc1nc3ccc(C(=O)O)cc3n1C[C@@H]1CCO1)-c1cccc(n1)OC2` [Example 14, (S)-2-((5^4-Cyano-1^6-fluoro-3,7-dioxa-2(2,6)-pyridina-1(1,3),5(1,2)-dibenzenacyclooctaphane-1^4-yl)methyl)-1-(oxetan-2-ylmethyl)-1H-benzo[d]imidazole-6-carboxylic acid], in test [1], the EC50 amounted to 72.3 nM and the Emax was determined as 109%. Also, in test [2], the EC50 came to 228 nM and the Emax was found to be 82.5%.
As to `COc1cc(C(=O)O)cc2c1nc(Cc1cc(C)c3cc1OCCCc1cc(C#N)ccc1COc1cccc-3c1)n2C[C@@H]1CCO1` [Example 15, (S)-2-((5^4-Cyano-1^6-methyl-3,9-dioxa-1,2(1,3),5(1,2)-tribenzenacyclononaphane-1^4-yl)methyl)-4-methoxy-1-(oxetan-2-ylmethyl)-1H-benzo[d]imidazole-6-carboxylic acid], the EC50 in test [1] is 6.74 nM; in test [2], 26.4 nM. Further, the Emax in test [1] is 105%; in test [2] it was 82.8%.
On to `COc1cc(C(=O)O)cc2c1nc(Cc1cc(C)c3cc1OCCCc1cc(C(F)(F)F)ccc1COc1cccc-3n1)n2C[C@@H]1CCO1` [Example 16, (S)-4-Methoxy-2-((1^6-methyl-5^4-(trifluoromethyl)-3,9-dioxa-2(2,6)-pyridina-1(1,3),5(1,2)-dibenzenacyclononaphane-1^4-yl)methyl)-1-(oxetan-2-ylmethyl)-1H-benzo[d]imidazole-6-carboxylic acid], for which, in test [1], the EC50 was found to be 1.95 nM and the Emax was 125%. In test [2], the EC50 amounted to 4.02 nM and the Emax was 86.7%.
As for `COc1cc(C(=O)O)cc2c1nc(Cc1cc(F)c3cc1COCc1cc(C#N)ccc1COc1cccc-3n1)n2C[C@@H]1CCO1` [Example 17, (S)-2-((5^4-cyano-1^6-fluoro-3,7-dioxa-2(2,6)-pyridina-1(1,3),5(1,2)-dibenzenacyclooctaphane-1^4-yl)methyl)-4-methoxy-1-(oxetan-2-ylmethyl)-1H-benzo[d]imidazole-6-carboxylic acid], the EC50 is 10.5 nM in test [1] and 38.4 nM in test [2]. The values for the maximal response (Emax) in test [1] and in test [2] were 121% and 84.6%, respectively.
As to `O=C(O)c1ccc2nc(Cc3ccc4cc3OCCCc3cc(Br)ccc3COc3cccc-4n3)n(C[C@@H]3CCO3)c2c1` [Example 18, (S)-2-((5^4-Bromo-3,9-dioxa-2(2,6)-pyridina-1(1,3),5(1,2)-dibenzenacyclononaphane-1^4-yl)methyl)-1-(oxetan-2-ylmethyl)-1H-benzo[d]imidazole-6-carboxylic acid], in test [1], the EC50 was found to be 50.3 nM and the Emax stood at 115%. In test [2], the EC50 stood at 169 nM and the Emax turned out to be 94.9%.
